Test results reported in PubChem BioAssay AID1259321 (Sanford-Burnham Center for Chemical Genomics, 2017).
The source made the active and inactive calls.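 How the source made its calls: active means half-maximal concentration for changing protein binding to DNA, from the fitted dose curve, below 10 micromolar; inactive means the rest.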

target: Nuclear receptor subfamily 1 group D member 1 (Homo sapiens) (UniProt P20393); test: modulators of Rev-erb alpha DNA binding, dose response, biochemical, FITC-DNA, fluorescence polarization (AID 1259321)
Sequence (P20393 whole entry, looked up): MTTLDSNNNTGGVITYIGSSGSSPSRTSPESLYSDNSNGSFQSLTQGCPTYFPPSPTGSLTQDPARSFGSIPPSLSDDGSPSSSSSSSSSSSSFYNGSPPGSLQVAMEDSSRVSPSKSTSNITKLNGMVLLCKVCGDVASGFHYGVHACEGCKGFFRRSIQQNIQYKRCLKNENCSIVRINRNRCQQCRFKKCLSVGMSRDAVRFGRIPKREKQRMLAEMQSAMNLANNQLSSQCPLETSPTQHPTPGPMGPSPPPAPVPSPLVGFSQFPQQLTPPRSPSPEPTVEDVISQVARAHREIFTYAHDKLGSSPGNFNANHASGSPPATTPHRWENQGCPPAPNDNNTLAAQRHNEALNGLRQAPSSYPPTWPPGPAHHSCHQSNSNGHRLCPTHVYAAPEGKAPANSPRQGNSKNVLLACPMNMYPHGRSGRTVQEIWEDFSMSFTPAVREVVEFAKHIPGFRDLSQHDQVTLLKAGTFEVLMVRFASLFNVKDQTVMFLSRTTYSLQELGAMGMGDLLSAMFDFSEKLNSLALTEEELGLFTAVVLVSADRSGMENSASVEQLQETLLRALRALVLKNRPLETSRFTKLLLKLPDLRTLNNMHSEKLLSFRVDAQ

Row | SMILES | IC50
1 | CCOC(=O)C(C)Sc1cc(CS(=O)(=O)c2ccccc2)nc(-c2ccccc2)n1 (stereo not drawn) | > 40 µM (inactive)
2 | CSc1ccccc1-c1nnc(-c2ccc(Cl)c(Cl)c2)o1 | 8.81 µM
3 | COc1ccc2c(c1)oc(=O)c1c3ccccc3[nH]c21 | > 40 µM (inactive)
4 | CCc1cc2c(C)ccc(C)c2nc1SCC(=O)Nc1c[nH]c(=O)[nH]c1=O | inactive
5 | COc1cc(C(=O)Nc2nnc(-c3sccc3C)s2)cc(OC)c1OC | 4.24 µM
6 | Oc1c(C=Nc2cccc3cccnc23)sc2ccccc12 | 8.64 µM
7 | Cc1ccc(-n2c(SCC(=O)Nc3cccc(C)c3)nc3c(oc4ccccc43)c2=O)cc1 | 2.18 µM
8 | O=c1c2ccccc2ncn1-c1ccc(Cl)c(Cl)c1 | > 40 µM (inactive)
9 | O=C(NCc1ccccc1)C(c1cccc2ccccc12)n1c(=O)c(-c2ccccc2)nc2ccccc21 (stereo not drawn) | 1.61 µM
10 | Cc1cc(C(F)(F)F)c2c(N)c(C(=O)Nc3cc(C)on3)sc2n1 | inactive
11 | CCOc1ccccc1NC(=O)c1cnc2n(c1=O)CCS2 | > 40 µM (inactive)
12 | CCC(C)(C)c1ccc(OCCCC[n+]2ccc(C)cc2)c(C(C)(C)CC)c1 | > 40 µM (inactive)
13 | Cc1ccc(NC(=O)CSc2nc3ncc(Br)cc3[nH]2)cc1C | > 40 µM (inactive)
14 | Cc1cc(C)c2nc(SCC(=O)Nc3cc(C)on3)c(C#N)cc2c1 | 4.17 µM
15 | CC(=O)Oc1c(/C=C(\C#N)C(N)=O)[nH]c2ccccc12 | 2.18 µM
16 | COc1ccc2c(C)cc(SCC(=O)Nc3cccnc3Cl)nc2c1 | > 40 µM (inactive)
17 | CC[n+]1c(/C=C/c2c[nH]c3ccccc23)ccc2cc(C)ccc21 | inactive
18 | COc1cc(C(=O)NCc2ccc(-c3nc4ccccc4s3)cc2)cc(OC)c1OC | > 40 µM (inactive)
19 | CCn1c(SCC(=O)Nc2cc(C)on2)nc2sc(C)c(C)c2c1=O | 4.73 µM
20 | Cc1nc(SCC(=O)NCCc2ccccc2)c2oc3ccccc3c2n1 | 4.25 µM
21 | Cc1ccc(CSc2nc3ccncc3n2CC(=O)Nc2cc(C)cc(C)c2)cc1 | > 40 µM (inactive)
22 | Cc1[nH]nc2nc(SCC(=O)NC3CCCCC3)n(-c3ccc(Br)cc3)c(=N)c12 | 5.74 µM
23 | CC(C)(C)C(=O)Nc1cc(S(=O)(=O)N2CCCCC2)ccc1N1CCCCC1 | > 40 µM (inactive)
24 | CCN(CC)c1ccc(/C=C/c2cccc[n+]2C)c(OC)c1 | 7.32 µM
25 | O=C(Nc1ccc(O)c(-c2nc3ccccc3s2)c1)C1=COCCO1 | inactive
26 | COc1ccc2nc(SC)c(C#N)cc2c1 | inactive

Row | SMILES | IC50
27 | Cc1ccc(-n2c(SCC(=O)NCc3ccco3)nc3sc4c(c3c2=O)CC(C)(C)SC4)cc1 | 1.93 µM
28 | Cc1c(Br)ccc(NC(=O)Cn2nc(-c3cccs3)ccc2=O)c1C | 4.84 µM
29 | COc1ccc(-c2cc(-c3cccnc3)c(C#N)c(N)n2)cc1 | 4.4 µM
30 | Cc1cccc(Nc2nn3c(=O)c4ccccc4nc3s2)c1 | 4.11 µM
31 | Cc1ccc(-c2cc(C(F)F)nc3sc4c(=O)[nH]cnc4c23)cc1 | 6.05 µM
32 | COc1ccccc1-c1ccc2c(c1)C(C)(Cc1cc(Cl)ccc1C(F)(F)F)C(=O)N2 (stereo not drawn) | > 40 µM (inactive)
33 | Cc1cccc2cc(C#N)c(NCCNC(=O)NC3CCCCC3)nc12 | inactive
34 | COc1cccc(C(=O)n2ccc3ccc(-c4ccc5ccn(C(=O)c6cccc(OC)c6)c5c4)cc32)c1 | 3.26 µM
35 | Cc1cccc(N2CCN(c3ccc4cc(S(=O)(=O)N5CCCCC5)ccc4n3)CC2)c1C | > 40 µM (inactive)
36 | CCOC(=O)CC(=O)CSc1nc(-c2ccc3c(c2)OCO3)cc(C(F)(F)F)c1C#N | inactive
37 | O=c1ccc(-c2ccc(S(=O)(=O)N3CCN(c4ccccc4)CC3)o2)n[nH]1 | > 40 µM (inactive)
38 | O=C(CSc1nc2ccccc2nc1N1CCCCC1)NCc1ccc(Cl)cc1Cl | 7.15 µM
39 | Cc1ccc(C(=O)CSc2nc3ccccc3c(=O)n2-c2ccccc2)s1 | 7.75 µM
40 | CC(C)c1nc2sc3c(SCC(N)=O)ncnc3c2c2c1CCC2 | 3.43 µM
41 | Cc1nc(SCC(=O)Nc2ccc(F)cc2)c2oc3ccccc3c2n1 | inactive
42 | Cc1ccc2[nH]c(C)c(/C=C/c3cc[n+](C)cc3)c2c1 | 8.6 µM
43 | CCn1c2ccccc2c2cc(C3C(C#N)=C(C)NC(C)=C3C#N)ccc21 | > 40 µM (inactive)
44 | CN(c1ccc(O)cc1)c1ccc([N+](=O)[O-])c2nonc12 | 6 µM
45 | CCOC(=O)c1nn(-c2ccc(F)cc2)c(=O)cc1OCC(=O)Nc1ccc(F)c(F)c1 | > 40 µM (inactive)
46 | COc1ccccc1NC(=O)CSc1nc(N)c(C#N)cc1C#N | inactive
47 | Cc1ccc(C(=O)Nc2cccc(C(F)(F)F)c2)cc1NC(=O)c1nccn1C | 6.88 µM
48 | COc1ccc(-n2nc(C(=O)NCC(=O)Nc3cccc(Cl)c3)c3ccccc3c2=O)cc1 | inactive
49 | CCC(C)(C)c1ccc(OCCCC[n+]2cccc(C)c2)c(C(C)(C)CC)c1 | 4.39 µM
50 | CN(C)/C=N/C1=C(C#N)C(c2cccs2)c2ccc3ccccc3c2O1 (stereo not drawn) | 3.95 µM
51 | C=CCn1c(C)c(/C=C/c2cc[n+](C)cc2)c2ccccc21 | 9.96 µM
52 | N#CC(C#N)=C1C=C2C=C(N3CCCCCC3)CCC2CC1 (stereo not drawn) | 4.8 µM

Row | SMILES | IC50
53 | O=C(c1cc2cc(Br)ccc2[nH]1)N1CCc2ccccc21 | 9.54 µM
54 | CN1C(=O)C(=Cc2ccc(N3CCOCC3)o2)C(=O)N(C)C1=S | 4.11 µM
55 | COc1ccc(Cn2ccc3ccc(-c4ccc5ccn(C(=O)c6ccccc6OC)c5c4)cc32)cc1 | > 40 µM (inactive)
56 | CCOC(=O)c1ccc(CNC(=O)CSc2nc(NC(=O)c3ccccc3)c3c(C)c(C)oc3n2)cc1 | inactive
57 | COc1cc(C(=O)Nc2nc(-c3ccc(Cl)cc3)c(C)s2)ccc1OCC(=O)Nc1ccc(F)cc1 | > 40 µM (inactive)
58 | COc1ccc(-n2nc(C(=O)NCC(=O)NCc3ccc(F)cc3)c3ccccc3c2=O)cc1OC | inactive
59 | CCCOc1ccc(/C(CC)=N/NC(=O)C2(C)CC2(Br)Br)cc1 (stereo not drawn) | inactive
60 | COC(=O)c1cccc(Cn2ccc3ccc(-c4ccc5ccn(C(=O)c6ccc(C)cc6)c5c4)cc32)c1 | > 40 µM (inactive)
61 | CCN(c1ccccc1C)S(=O)(=O)c1cc2c3c(c1)CCC(=O)N3CCC2 | > 40 µM (inactive)
62 | O=C(CCc1c[nH]c2ccccc12)NCCc1ccc(Cl)cc1 | > 40 µM (inactive)
63 | CCOc1ccc(-n2c([S-])c(C(=O)Nc3ccc(S(=O)(=O)N4CCOCC4)cc3)[n+]3cc(C(N)=O)ccc23)cc1 | inactive
64 | O=C(OCC(=O)c1c[nH]c2ccccc12)c1cc(Br)ccc1O | 5.27 µM
65 | O=[N+]([O-])c1ccc2c(c1)Cc1cc(F)ccc1-2 | 9.46 µM
66 | Cc1ccccc1C(=O)N=c1ccn(-c2nc3ccccc3nc2NS(=O)(=O)c2ccc(F)cc2)cc1 | 5.69 µM
67 | COc1ccccc1NC(=O)c1sc2nc(Cc3ccccc3)cc(C(F)(F)F)c2c1N | inactive
68 | COC(=O)c1cccc(Cn2ccc3ccc(-c4ccc5ccn(C(=O)c6ccccc6OC)c5c4)cc32)c1 | 0.91 µM
69 | COc1cc(SC)ccc1C(=O)Nc1ccc(Cl)cn1 | 4.58 µM
70 | Cc1ccc2nc(N3CCN(c4cccc(C)c4C)CC3)c3nnnn3c2c1 | 7.32 µM
71 | CCOC(=O)c1c(NC(=O)C2CCCN(S(=O)(=O)c3ccccc3)C2)sc2c1CCCC2 (stereo not drawn) | 3.46 µM
72 | O=C(Nc1ccnc(-c2cccnc2)n1)c1ccc(Cl)cc1 | 5.12 µM
73 | Cc1ccc(C(=O)Nc2nc3ccccc3c(=O)s2)cc1 | 0.599 µM
74 | CCOC(=O)N1CCN(c2ncnc3c2oc2nc(C(C)C)c4c(c23)CCC4)CC1 | 5.3 µM
75 | COc1ccccc1Oc1ccc2c(c1)C(=O)N(c1ccccc1)C2=O | 2.24 µM
76 | CC(=O)c1sc(NC(=O)COc2ccc(Br)cc2)nc1C | 4.41 µM
77 | CC(=O)Nc1sc(C)c(C)c1C(=O)OCC(=O)N(Cc1ccccc1)C(C)C | inactive
78 | Cn1c(=O)c(NCCO)c2c3c(cccc31)C(=O)c1ccccc1-2 | 3.63 µM

Row | SMILES | IC50
79 | CC1(C)Cc2c(c(N3CCOCC3)nc3sc4c(NN)ncnc4c23)CS1 | > 40 µM (inactive)
80 | Cc1ccc(-c2c(C#N)c(N)n(-c3ccc(Cl)cc3)c(=O)c2C#N)cc1 | inactive
81 | O=c1sc(N2CCN(c3ccc(F)cc3)CC2)nc2ccsc12 | inactive
82 | Cn1cc(/C=C/c2cc[n+](C)cc2)c2cc(Cl)ccc21 | > 40 µM (inactive)
83 | CCOc1ccc(CNC(=O)C2CCN(c3nnc(C)c4c(C)n(-c5ccc(C)cc5)nc34)CC2)cc1 | inactive
84 | CCN1C(=O)CSC1=NC1C2CC3CC(C2)CC1C3 (stereo not drawn) | 4.66 µM
85 | COc1ccc(NC(=O)NNC(=O)c2cc3ccccc3cc2O)cc1 | 9.78 µM
86 | COc1ccc(NC(=O)/C(C#N)=C\c2ccc(N3CCOCC3)o2)cc1 | > 40 µM (inactive)
87 | COCCN(Cc1cc2cc(C)ccc2n2nnnc12)C(=S)Nc1ccc(C)cc1 | inactive
88 | CCCc1cc(=O)oc2cc(C)cc(OCC(=O)Nc3ccc(S(N)(=O)=O)cc3)c12 | > 40 µM (inactive)
89 | CCc1cccc(NC(=O)c2ccc(Cn3c(=O)[nH]c4ccsc4c3=O)cc2)c1 | inactive
90 | O=C(Nc1nnc(SCc2ccccc2)s1)c1cc2c(s1)CCCC2 | 2.33 µM
91 | CN1C(=O)C(=Cc2ccc(N3CCCCCC3)o2)C(=O)N(C)C1=S | inactive
92 | Cc1cc(C)c(NC(=O)CSc2nc(COc3ccccc3)nc3ccccc23)c(C)c1 | 3.42 µM
93 | CC1(C)Cc2c(c(N3CCCC3)nc3sc(C(=O)Nc4ccccc4)c(N)c23)CO1 | 3.37 µM
94 | CCN1C(=O)C(=CC=CN(C)c2ccccc2)SC1=S | inactive
95 | CN1C(=O)c2cccc3c(N)ccc(c23)C1=O | inactive
96 | CCOc1ccc2nc(N=Nc3c(O)[nH]c(=S)[nH]c3=O)sc2c1 | > 40 µM (inactive)
97 | COc1ccc(C(C)(C)C)cc1NC(=O)C1=CC=CN2CCS(=O)(=O)N=C12 | 5.35 µM
98 | COC(=O)c1ccccc1NC(=O)C1=CC(c2cccs2)=NS(=O)(=O)N1C | 1.14 µM
99 | Cc1coc(NC(=O)CSc2nc(-c3ccc(Cl)cc3)cc(C(F)(F)F)c2C#N)n1 | inactive
100 | COC(=O)Cn1c(=NC(=O)CCS(=O)(=O)c2ccccc2)sc2c(OC)ccc(OC)c21 | 3.16 µM
101 | CCc1cc2cc3c(cc2nc1SCC(=O)Nc1nccs1)OCO3 | > 40 µM (inactive)
102 | COc1cc2c(cc1OC)-c1cc3ccc4c(c3c[n+]1CC2)OCO4 | inactive
103 | COc1ccccc1C(=O)Nc1ccc2oc(-c3ccc(F)cc3)nc2c1 | 0.436 µM
